Patent publication US7029886B1, “Enzymatic substrate, synthesis method and uses” (Bio Merieux, priority 1999, dated 2006)
Marks after values point to notes of the source that are not given here.

Assays:
E. coli 115 = assay: Influence of the incubation atmosphere on revelation of β-D-galactosidase (Table IV)
E. coli 206 = assay: as above
S. marcescens 042 = assay: as above; conditions: 48 H
E. cloacae 061 = assay: as above
E. faecium 255 = assay: as above
E. cloacae (NCTC, 11936) [1] = assay: CBR-gal in a liquid medium, pink coloration over time (Table V); format: cell-based; set-up: key: — signifies a lack of coloration, even after 24 hours
Experimental: (§1) The CBR-gal substrate is tested in a liquid medium, at various concentrations from 0.5 mg/ml to 0.0078 mg/ml. The liquid reaction medium into which the substrate is incorporated is composed of a phosphate buffer, pH 7.4, containing 0.5% of nutrient broth and 0.5% of NaCl. 30 microliters/ml of IPTG are added to the medium for all the substrate concentrations. The strains tested are E. coli (NCTC, 10418), K. pneumoniae (NCTC, 10896), P. rettgeri (NCTC, 7475), E. cloacae (NCTC, 11936), S. marcescens (NCTC, 10211) and S. typhimurium (NCTC, 74), with an inoculum of 0.5 McFarland.

E. coli (NCTC, 10418) [2] = assay: as above; format: cell-based; set-up: key: — signifies a lack of coloration, even after 24 hours
Experimental: as §1

[3] = system: K. pneumoniae (NCTC, 10896); assay: as above; format: cell-based; set-up: key: — signifies a lack of coloration, even after 24 hours
Experimental: as §1

P. rettgeri (NCTC, 7475) = assay: as above; format: cell-based; set-up: key: — signifies a lack of coloration, even after 24 hours
Experimental: as §1

[4] = system: S. marcescens (NCTC, 10211); assay: as above; format: cell-based; set-up: key: — signifies a lack of coloration, even after 24 hours
Experimental: as §1

[5] = system: S. typhimurium (NCTC, 74); assay: as above; format: cell-based; set-up: key: — signifies a lack of coloration, even after 24 hours
Experimental: as §1

E. cloacae (NCTC, 11936) [6] = assay: CBR-gal in Columbia agar (solid medium); format: cell-based; conditions: 2, 6, 10 and 20 mg/100 ml, 37° C. overnight
Experimental: (§2) The CBR-gal substrate is incorporated into a Columbia agar at the following concentrations: 2, 6, 10 and 20 mg/100 ml, and the medium thus prepared is distributed into dishes. Each dish is inoculated with the following organisms: E. coli (NCTC, 10418), K. pneumoniae (NCTC, 10896), P. rettgeri (NCTC, 7475), E. cloacae (NCTC, 11936), S. marcescens (NCTC, 10211) and S. typhimurium (NCTC, 74). IPTG is incorporated into all these media, at a concentration of 3 mg per 100 ml of Columbia agar. All the dishes are incubated at 37° C. overnight.

E. coli (NCTC, 10418) [7] = assay: CBR-gal in Columbia agar (solid medium); format: cell-based; conditions: 2, 6, 10 and 20 mg/100 ml, 37° C. overnight
Experimental: as §2

[8] = system: K. pneumoniae (NCTC, 10896); assay: CBR-gal in Columbia agar (solid medium); format: cell-based; conditions: 2, 6, 10 and 20 mg/100 ml, 37° C. overnight
Experimental: as §2

[9] = system: S. marcescens (NCTC, 10211); assay: CBR-gal in Columbia agar (solid medium); format: cell-based; conditions: 2, 6, 10 and 20 mg/100 ml, 37° C. overnight
Experimental: as §2

[10] = system: E. coli, K. pneumoniae, P. rettgeri, E. cloacae, S. marcescens and S. typhimurium; format: cell-based; conditions: Columbia agar, 37° C. overnight
Experimental: as §2

OC[C@H]1O[C@@H](Oc2c[nH]c3ccc(Br)c(Cl)c23)[C@H](O)[C@@H](O)[C@H]1O [X-Gal, reference compound]
intensity of coloration (arbitrary scale based on a visual observation) (E. coli 115; 24 H, AE (aerobiosis)): 3*
intensity of coloration (arbitrary scale based on a visual observation) (E. coli 115; 24 H, CO2): 2
intensity of coloration (arbitrary scale based on a visual observation) (E. coli 115; 24 H, MAP (microaerophily)): 2
intensity of coloration (arbitrary scale based on a visual observation) (E. coli 115; 48 H, AE (aerobiosis)): 3
intensity of coloration (arbitrary scale based on a visual observation) (E. coli 115; 48 H, ANA (anaerobiosis)): 1
intensity of coloration (arbitrary scale based on a visual observation) (E. coli 115; 48 H, CO2): 2
intensity of coloration (arbitrary scale based on a visual observation) (E. coli 115; 48 H, MAP (microaerophily)): 2
intensity of coloration (arbitrary scale based on a visual observation) (E. coli 206; 24 H, AE (aerobiosis)): 3
intensity of coloration (arbitrary scale based on a visual observation) (E. coli 206; 24 H, ANA (anaerobiosis)): 1
intensity of coloration (arbitrary scale based on a visual observation) (E. coli 206; 24 H, CO2): 3
intensity of coloration (arbitrary scale based on a visual observation) (E. coli 206; 24 H, MAP (microaerophily)): 1
intensity of coloration (arbitrary scale based on a visual observation) (E. coli 206; 48 H, AE (aerobiosis)): 3
intensity of coloration (arbitrary scale based on a visual observation) (E. coli 206; 48 H, ANA (anaerobiosis)): 1
intensity of coloration (arbitrary scale based on a visual observation) (E. coli 206; 48 H, CO2): 3
intensity of coloration (arbitrary scale based on a visual observation) (E. coli 206; 48 H, MAP (microaerophily)): 1
intensity of coloration (arbitrary scale based on a visual observation) (S. marcescens 042; AE (aerobiosis)): 1
intensity of coloration (arbitrary scale based on a visual observation) (S. marcescens 042; CO2): 2
intensity of coloration (arbitrary scale based on a visual observation) (S. marcescens 042; MAP (microaerophily)): 1
intensity of coloration (arbitrary scale based on a visual observation) (E. cloacae 061; 24 H, AE (aerobiosis)): 2
intensity of coloration (arbitrary scale based on a visual observation) (E. cloacae 061; 24 H, CO2): 2
intensity of coloration (arbitrary scale based on a visual observation) (E. cloacae 061; 24 H, MAP (microaerophily)): 1
intensity of coloration (arbitrary scale based on a visual observation) (E. cloacae 061; 48 H, AE (aerobiosis)): 2
intensity of coloration (arbitrary scale based on a visual observation) (E. cloacae 061; 48 H, ANA (anaerobiosis)): 1
intensity of coloration (arbitrary scale based on a visual observation) (E. cloacae 061; 48 H, CO2): 2
intensity of coloration (arbitrary scale based on a visual observation) (E. cloacae 061; 48 H, MAP (microaerophily)): 1
intensity of coloration (arbitrary scale based on a visual observation) (E. faecium 255; 24 H, AE (aerobiosis)): 1
intensity of coloration (arbitrary scale based on a visual observation) (E. faecium 255; 48 H, AE (aerobiosis)): 3
intensity of coloration (arbitrary scale based on a visual observation) (E. faecium 255; 48 H, CO2): 1
intensity of coloration (arbitrary scale based on a visual observation) (E. faecium 255; 48 H, MAP (microaerophily)): 1

O=c1cc2oc3cc(OC4OC(CO)C(O)C(O)C4O)c(Cl)cc3nc-2c2ccccc12 [CBR-gal, 8-chloro-1,2-benzoresorufin-β-D-galactoside]
time until pink coloration (E. cloacae (NCTC, 11936) [1]; CBR-gal substrate 0.0078 mg/ml): —
time until pink coloration (E. cloacae (NCTC, 11936) [1]; CBR-gal substrate 0.0156 mg/ml): —
time until pink coloration (E. cloacae (NCTC, 11936) [1]; CBR-gal substrate 0.0313 mg/ml): 24 h
time until pink coloration (E. cloacae (NCTC, 11936) [1]; CBR-gal substrate 0.0625 mg/ml): 4 h
time until pink coloration (E. cloacae (NCTC, 11936) [1]; CBR-gal substrate 0.125 mg/ml): 4 h
time until pink coloration (E. cloacae (NCTC, 11936) [1]; CBR-gal substrate 0.25 mg/ml): 2 h
time until pink coloration (E. cloacae (NCTC, 11936) [1]; CBR-gal substrate 0.5 mg/ml): 2 h
time until pink coloration (E. coli (NCTC, 10418) [2]; CBR-gal substrate 0.0078 mg/ml): —
time until pink coloration (E. coli (NCTC, 10418) [2]; CBR-gal substrate 0.0156 mg/ml): —
time until pink coloration (E. coli (NCTC, 10418) [2]; CBR-gal substrate 0.0313 mg/ml): 24 h
time until pink coloration (E. coli (NCTC, 10418) [2]; CBR-gal substrate 0.0625 mg/ml): 4 h
time until pink coloration (E. coli (NCTC, 10418) [2]; CBR-gal substrate 0.125 mg/ml): 4 h
time until pink coloration (E. coli (NCTC, 10418) [2]; CBR-gal substrate 0.25 mg/ml): 2 h
time until pink coloration (E. coli (NCTC, 10418) [2]; CBR-gal substrate 0.5 mg/ml): 2* hours
time until pink coloration ([3]; CBR-gal substrate 0.0078 mg/ml): —
time until pink coloration ([3]; CBR-gal substrate 0.0156 mg/ml): —
time until pink coloration ([3]; CBR-gal substrate 0.0313 mg/ml): 24 h
time until pink coloration ([3]; CBR-gal substrate 0.0625 mg/ml): 4 h
time until pink coloration ([3]; CBR-gal substrate 0.125 mg/ml): 4 h
time until pink coloration ([3]; CBR-gal substrate 0.25 mg/ml): 2 h
time until pink coloration ([3]; CBR-gal substrate 0.5 mg/ml): 2 h
time until pink coloration (P. rettgeri (NCTC, 7475); CBR-gal substrate 0.0078 mg/ml): —
time until pink coloration (P. rettgeri (NCTC, 7475); CBR-gal substrate 0.0156 mg/ml): —
time until pink coloration (P. rettgeri (NCTC, 7475); CBR-gal substrate 0.0313 mg/ml): —
time until pink coloration (P. rettgeri (NCTC, 7475); CBR-gal substrate 0.0625 mg/ml): —
time until pink coloration (P. rettgeri (NCTC, 7475); CBR-gal substrate 0.125 mg/ml): —
time until pink coloration (P. rettgeri (NCTC, 7475); CBR-gal substrate 0.25 mg/ml): —
time until pink coloration (P. rettgeri (NCTC, 7475); CBR-gal substrate 0.5 mg/ml): —
time until pink coloration ([4]; CBR-gal substrate 0.0078 mg/ml): —
time until pink coloration ([4]; CBR-gal substrate 0.0156 mg/ml): —
time until pink coloration ([4]; CBR-gal substrate 0.0313 mg/ml): 24 h
time until pink coloration ([4]; CBR-gal substrate 0.0625 mg/ml): 24 h
time until pink coloration ([4]; CBR-gal substrate 0.125 mg/ml): 24 h
time until pink coloration ([4]; CBR-gal substrate 0.25 mg/ml): 24 h
time until pink coloration ([4]; CBR-gal substrate 0.5 mg/ml): 24 h
time until pink coloration ([5]; CBR-gal substrate 0.0078 mg/ml): —
time until pink coloration ([5]; CBR-gal substrate 0.0156 mg/ml): —
time until pink coloration ([5]; CBR-gal substrate 0.0313 mg/ml): —
time until pink coloration ([5]; CBR-gal substrate 0.0625 mg/ml): —
time until pink coloration ([5]; CBR-gal substrate 0.125 mg/ml): —
time until pink coloration ([5]; CBR-gal substrate 0.25 mg/ml): —
time until pink coloration ([5]; CBR-gal substrate 0.5 mg/ml): —
coloration of the bacterial colony (E. cloacae (NCTC, 11936) [6]): pink coloration
coloration of the bacterial colony (E. coli (NCTC, 10418) [7]): pink coloration
coloration of the bacterial colony [8]: pink coloration
coloration of the bacterial colony [9]: pink coloration
optimum concentration to obtain a clearly visible pink coloration without any background noise [10]: around 10 mg/100 ml
